Data taken from patent publication US12180155B2, “Crystalline forms of a cannabinoid receptor type 1 (CB1) modulator and methods of use and preparation thereof” (Anebulo Pharmaceuticals, Inc., priority 2021, dated 2024).

Assays:
Type in all cases: physicochemical
[1] = Thermogravimetric analysis (TGA); settings: up to 150° C.
Text: (§1) TGA: Polymorphs according to the present disclosure may also give rise to thermal behavior different from that of the amorphous material or another polymorphic form. Thermal behavior may be measured in the laboratory by thermogravimetric analysis (TGA) which may be used to distinguish some polymorphic forms from others. In one aspect, the polymorphs as described herein may be characterized by thermogravimetric analysis.
The TGA trace of Crystalline Form I of (R)—N-(tert-butyl)-3-((4-chlorophenyl)(2-(trifluoromethyl)phenyl)methoxy)azetidine-1-carboxamide (compound 1) is reported in FIG. 3.
The TGA trace of Crystalline Form II of (R)—N-(tert-butyl)-3-((4-chlorophenyl)(2-(trifluoromethyl)phenyl)methoxy)azetidine-1-carboxamide (compound 1) is reported in FIG. 7.

[2] = Dynamic vapor sorption (DVS); settings: for weight gain from dryness to 90% RH: second adsorption cycle
Text: as §1, with “DVS:” for “TGA:”, “vapors sorption” for “thermal”, “The vapor sorption” for “Thermal”, “dynamic vapor sorption (DVS)” for “thermogravimetric analysis (TGA)”, “dynamic vapor sorption.” for “thermogravimetric analysis.”
The DVS trace of Crystalline Form I of (R)—N-(tert-butyl)-3-((4-chlorophenyl)(2-(trifluoromethyl)phenyl)methoxy)azetidine-1-carboxamide (compound 1) is reported in FIG. 4.
The DVS trace of Crystalline Form I of (R)—N-(tert-butyl)-3-((4-chlorophenyl)(2-(trifluoromethyl)phenyl)methoxy)azetidine-1-carboxamide (compound 1) is reported in FIG. 8.

[3] = Temperature dependent solubility in heptane (Crystal16, clear points); settings: for temperature at which the two solubility lines intersect / relative solubility: heptane; for temperature at which the two solubility lines intersect: Form I vs Form II
Protocol: Temperature dependent solubility experiment was performed on Crystalline Form I and Crystalline Form II of Compound 1, and data was generated by Crystal16 equipment using heptane as solvent. Slurries with accurate amounts of solid in heptane were prepared, equilibrated at 20° C. for 5 minutes then heated to 70° C. at a rate of 5° C./min, and the turbidity of the suspensions were measured. Clear points of the solutions were determined and solubility vs. temperature curves (Arrhenius plots: ln[conc.] vs. 1/T [° K]) were obtained, as shown in FIG. 9.

[4] = Competitive slurries of Crystalline Form I and Crystalline Form II; settings: for conversion of equimolar Form I / Form II slurry to this form: XRPD of solids
Protocol: The relationship between Crystalline Form I and Crystalline Form II of Compound 1 was investigated via competitive slurries and solubility determination.
Equimolar amounts of the Crystalline Form I and Crystalline Form II were suspended in saturated solution of compound 1 and aged in different conditions. Slurry samples were taken at intervals, solids were filtered, dried and analyzed by XRPD. Two temperatures, 20° C. and 40° C., and two different solvent systems, heptane and a mixture of ethanol and water, were investigated.

[5] = Stability at solid state (XRPD re-analysis after storage)

Row | Compound | weight loss [1] | weight gain from dryness to 90% RH [2] | temperature at which the two solubility lines intersect [3] | relative solubility ([3]; temperature greater than 40° C.) | relative stability ([3]; temperatures greater than 40° C.) | conversion of equimolar Form I / Form II slurry to this form ([4]; 40° C.) | XRPD pattern after storage with respect to initial XRPD pattern ([5]; 5 weeks of storage at laboratory conditions) | hygroscopic behavior ([2]; dryness to 90% RH) | relative solubility ([3]; temperature less than 39° C.) | relative stability ([3]; temperatures less than 39° C.) | conversion of equimolar Form I / Form II slurry to this form ([4]; 20° C., heptane and ethanol/water) | relative polymorph stability ([4]; room temperature (20-21° C.)) | XRPD pattern after storage with respect to initial XRPD pattern ([5]; 8 weeks of storage at laboratory conditions)
1 | CC(C)(C)NC(=O)N1CC(O[C@H](c2ccc(Cl)cc2)c2ccccc2C(F)(F)F)C1 [Crystalline Form I, (R)—N-(tert-butyl)-3-((4-chlorophenyl)(2-(trifluoromethyl)phenyl)methoxy)azetidine-1-carboxamide] | < 0.1% | 0.4% | about 39 °C | less than that of Crystalline Form II | more stable | slow but complete conversion | did not show significant differences | – | – | – | – | – | –
2 | CC(C)(C)NC(=O)N1CC(O[C@H](c2ccc(Cl)cc2)c2ccccc2C(F)(F)F)C1 [Crystalline Form II, (R)—N-(tert-butyl)-3-((4-chlorophenyl)(2-(trifluoromethyl)phenyl)methoxy)azetidine-1-carboxamide] | < 0.1% | < 0.1% | about 39 °C | – | – | – | – | non-hygroscopic behavior | less than that of Crystalline Form I | more stable | complete conversion | most stable polymorph form | did not show significant differences
